Test results from patent US20110236359A1 (priority 2007, published 2011).

How the values were obtained:
[1] = test system: vancomycin-resistant Enterococcus faecium (VRE) clinical isolate; experiment: Agar well-diffusion assay against VRE clinical isolate; assay type: cell-based; details: all concentrations evaluated between 0 to 800 μg/ml; data not shown
Experimental: A clinical isolate of vancomycin-resistant Enterococcus faecium (VRE) was provided by the Centre Hospitalier de l'Université de Montréal microbiology laboratory (CHUM; Montreal, QC, Canada). […] The E. faecium strain was maintained in brain-heart infusion (BHI; Difco) for E. faecium containing 10% glycerol (w/v).
An agar well-diffusion assay was performed to verify the antimicrobial capacity of the neutralized cell-free supernatant (CFS) against a VRE clinical isolate. CFS was obtained as described before. A volume of 30 ml of cooled (45° C.) sterile BHI agar, containing 0.75% agar, was inoculated with 10^7 colony-forming units (CFU)/ml of VRE, poured into a […] standard Petri dishes and allowed to solidify for 30 minutes at room temperature. Wells of 6 mm in diameter were cut-out and […] of antimicrobial agent were placed into each well. All plates were then placed at 4° C. for 30 minutes, incubated at 37° C. for 24 h and examined for inhibition zones. Inhibition was scored positive if the width of the clearing zone around the well was 0.5 mm. Antibiotics were also evaluated with this method to ascertain the resistance of the VRE strain. Vancomycin and clindamycin (Sigma-Aldrich, Oakville, ON, Canada) were used in concentrations ranging from 0 to 800 μg/ml. […]

[2] = test system: Lactococcus lactis subsp. lactis MM19; experiment: Antibiotic MIC plates (resistance profile); assay type: cell-based; details: Lactococcus lactis
Source text: (§1) The protocol was adapted from Delgado et al. (2005). Minimum Inhibitory Concentration (MIC) Plate (# GPN3F) and Anaerobe MIC Plate (# AN02B) were used to determine the antibiotic sensitivity and resistance profile of MM19 and MM33 according to the instructions of the manufacturer (Trek Diagnostic Systems; Nova Century, Burlington, ON, Canada).
(§2) Lactococcus lactis subsp. lactis MM19, Pediococcus acidilactici MM33 and Lactobacillus rhamnosus GG (ATCC 53103) from frozen glycerol stock were first inoculated in Lactobacilli MRS and incubated at 37° C. for 18 h. 100 μl of this culture were further incubated under the same conditions. This second culture was then inoculated on a MRS agar plate and incubated at 37° C. for 48 h under anaerobic conditions using GasPak Plus system (BD BBL, Sparks, Md., USA).

[3] = test system: Pediococcus acidilactici MM33; experiment: Antibiotic MIC plates (resistance profile); assay type: cell-based; details: Pediococcus acidilactici, MM33
Source text: as §1, §2

[4] = test system: Lactobacillus rhamnosus GG (ATCC 53103); experiment: Antibiotic MIC plates (resistance profile); assay type: cell-based; details: Lacticaseibacillus rhamnosus, ATCC53103
Source text: as §1, §2

[5] = test system: L. monocytogenes HPB 2812 serotype ½a; experiment: Inhibitory activity of purified pediocin on growth in broth; assay type: cell-based, Listeria monocytogenes; details: for Viable counts: from 9.14
Experimental: Different amounts of purified bacteriocin (0 to 800 AU/ml) were added to cultures of L. monocytogenes HPB 2812 serotype ½a in early exponential phase (grown for 6 h) and incubated at 37° C. Bacterial growth was monitored by measuring the bacterial population in a 1 ml sample taken every 2 h of incubation. These samples were serially diluted ten-fold in peptone water (0.1% w/v), pour-plated in BHI agar and then incubated at 37° C. for 24 h. Colonies were counted using Darkfield Quebec Colony Counter (American Optical, Scientific instrument division, Keene, Ohio, USA).

Compound | Sensitivity of the VRE clinical isolate (in words) [1] | MIC [2] [µg/mL] | MIC [3] [µg/mL] | MIC [4] [µg/mL] | Decrease in viable CFU ml^−1 ([5]; at least 200 AU ml^−1 added into the culture medium) | Viable counts ([5]; two hours after addition of 100 AU ml^−1) [log CFU ml^−1] | Viable counts ([5]; two hours after addition of 200 AU ml^−1) [log CFU ml^−1] | Viable counts ([5]; two hours after addition of 400 AU ml^−1) [log CFU ml^−1] | Viable counts ([5]; two hours after addition of 800 AU ml^−1) [log CFU ml^−1]
CN[C@H](CC(C)C)C(=O)N[C@H]1C(=O)N[C@@H](CC(N)=O)C(=O)N[C@H]2C(=O)N[C@H]3C(=O)N[C@H](C(=O)N[C@H](C(=O)O)c4cc(O)cc(O)c4-c4cc3ccc4O)[C@H](O)c3ccc(c(Cl)c3)Oc3cc2cc(c3O[C@@H]2O[C@H](CO)[C@@H](O)[C@H](O)[C@H]2O[C@H]2C[C@](C)(N)[C@H](O)[C@H](C)O2)Oc2ccc(cc2Cl)[C@H]1O [VAN, Vancomycin] | resistant | < 1 | > 128 | > 128 |  |  |  |  | 
pediocin (KYYGNGVTCGKHSCSVDWGKATTCIINNGAMAWATGGHQGNHKC; Pediococcus acidilactici MM33) |  |  |  |  | more than 99.9% | 8.7 | 6.0 | 4.36 | 2.81
